Test results: PubChem BioAssay (NCI)
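Step 1: Grow cells in 96-well plates. Step 2: Expose to compound for 48 hours at 5 concentrations. Step 3: Interpolate endpoints linearly; if unreached, use highest concentration. Definition used: TGI = concentration required for complete inhibition of growth.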

Tests used:
Test in all cases: NCI-60 cell line screen, 48 h
MCF7 breast = system: MCF7 breast
SNB-19 CNS = system: SNB-19 CNS
SK-MEL-2 melanoma = system: SK-MEL-2 melanoma
LOX IMVI melanoma = system: LOX IMVI melanoma
SN12C renal = system: SN12C renal
HOP-62 NSCLC = system: HOP-62 NSCLC
K-562 leukemia = system: K-562 leukemia
HL-60(TB) leukemia = system: HL-60(TB) leukemia
COLO 205 colon = system: COLO 205 colon
HCT-116 colon = system: HCT-116 colon

Measured: TGI

N=C(N)n1[nH]c2c(c1=O)CCCC2
> 100 µM: all assays above

CC1(C)CN=C(Nc2ccc(Cl)cc2)S1
> 100 µM: all assays above
